US20100279995A1, “Novel Ansamycin Derivatives” (priority 2005, published 2010)

Columns and labels:
[1] = Cleavage assay in phosphate buffer; format: physicochemical; settings: cleavage to 18,21-dihydromacbecin
Procedure: (§1) Cleavage Assays for Pro-Drugs of 18,21-dihydromacbecin
(§2) Assays to determine the rate of cleavage of the pro-drugs into their parent compounds were performed as described herein. These were carried out in plasma, blood or buffer. Mixed mouse, human or mixed rat plasma containing EDTA or heparin as an anti-coagulant was used or whole defibrinated rabbit blood (mouse and rat plasma and rabbit blood were obtained from Harlan-Sera Labs, human plasma was obtained from Biopredic International).
The stability of the test compounds in phosphate-buffered saline (PBS) of specific pH over the course of each experiment was also analysed using the same methodology.
After the final time point was sampled, the samples were extracted as follows. For each time point sample an Oasis MCX (3 cc/60 mg) or Oasis HLB (333/60 mg) cartridge was conditioned and equilibrated with 2 mL methanol followed by 2 mL water. 1.5 mL water and an internal standard (IS) at 0.002 mg/mL were added to each 0.4 mL plasma sample. This was loaded to the cartridge. The cartridge was washed with 2 mL water and the analytes were eluted in 2 ml MeOH. This extract was analysed without further treatment by LC/MS using the conditions described below.
The cleavage of compounds 1-3 was also measured in phosphate buffer as described in the General Methods—Cleavage Assay above at pH 7.2 and pH 7.4 and T1/2 values calculated as indicated in Table 5 below.

[2] = Cleavage assay in whole defibrinated rabbit blood; format: in vitro ADME
Procedure: as §1, §2
If using whole blood such as defibrinated whole rabbit blood the following protocol was used: The blood was thawed at 37° C. in a water bath. Blood was dispensed into individual 20 mL tubes for each test compound allowing 0.5 mL for each time point to be analysed. A tube containing blood was also included as a control. These tubes were incubated for 15 minutes at 37° C.
Each test compound was reconstituted in DMSO or other appropriate solvent. The blood was removed from the water bath and the compound was added to give a final concentration of 0.001-0.010 mg/mL keeping the final concentration of solvent below 5%. In the case of the control, an equivalent volume of DMSO or other solvent was added. Immediately after the addition of compound a 0.4 mL sample was taken from the tube, transferred to a 2 mL microfuge tube. The plasma was promptly returned to the 37° C. water bath. 0.4 mL samples were taken at regular time points (e.g. after 30 min and then hourly) and were immediately frozen at −80° C. To each 0.4 mL sample in its 2 mL microfuge tube was added 1.5 mL of 0.1 M potassium dihydrogen phosphate, this was inverted to mix. A stable internal standard (IS) in acetonitrile was added at 0.002 mg/mL. This was agitated for 5 min on an IKA shaker at 1500 rpm. Centrifugation at 5000 rpm for 5 min lead to a dense pellet made up of red blood cells and precipitated protein, and a pink/red supernatant. An Oasis HLB (333/60 mg) cartridge was equilibrated with 2 mL of methanol followed by 2 mL of water. […]
The HPLC conditions were: 10% B for 1 min followed by a linear gradient to 100% B over a period of 7 min and an isocratic period of 2 min at 100% B. The analytes were detected by UV absorbance at 255 nm and mass spectrometry using a Bruker Daltonics Esquire 3000+ mass spectrometer coupled to the HPLC. The analytes were quantified based on the extracted ion chromatogram. To ensure a reliable quantification, the linear response of the mass spectrometer was checked for the concentration range of interest.
Each compound was assessed for cleavage to 18,21-dihydromacbecin as follows. […] The samples were applied to a cartridge described above and analysed immediately using Analysis Method C.

PRXF DU-145 xenografts = assay: In vivo evaluation of antitumor efficacy in PRXF DU-145 xenografts; set-up: species or system nude mice; settings: 60 mg/kg/d i.p. on Days 0-4, 7-11, 14-18, 21, 24, 25, 28 and 29; recorded on day 31; p<0.001 vs vehicle control
MDA-MB-468 = assay: Monolayer proliferation assay (modified propidium iodide); format: cell-based, human; settings: MDA468, 4 days exposure
From the text: (§3) In vitro evaluation of compounds for anticancer activity in a panel of 12 human tumour cell lines in a monolayer proliferation assay may be carried out at the Oncotest Testing Facility, Institute for Experimental Oncology, Oncotest GmbH, Freiburg.
(§4) The Oncotest cell lines were established from human tumor xenografts as described by Roth et al., (1999). The origin of the donor xenografts is described by Fiebig et al., (1999). Other cell lines were either obtained from the NCI (H460, SF-268, OVCAR-3, DU145, MDA-MB-231, MDA-MB-468) or purchased from DSMZ, Braunschweig, Germany (LNCAP).
(§5) All cell lines, unless otherwise specified, were grown at 37° C. in a humidified atmosphere (95% air, 5% CO2) in a ‘ready-mix’ medium containing RPMI 1640 medium, 10% fetal calf serum, and 0.1 mg/mL gentamicin (PAA, Cölbe, Germany).
(§6) A modified propidium iodide assay was used to assess the effects of the test compound(s) on the growth of twelve human tumour cell lines (Dengler et al., (1995)).
(§7) Briefly, cells were harvested from exponential phase cultures by trypsinization, counted and plated in 96 well flat-bottomed microtitre plates at a cell density dependent on the cell line (5-10.000 viable cells/well). After 24 h recovery to allow the cells to resume exponential growth, 0.010 mL of culture medium (6 control wells per plate) or culture medium containing macbecin was added to the wells. Each concentration was plated in triplicate. Compounds were applied in two concentrations (0.001 mM and 0.01 mM). Following 4 days of continuous exposure, cell culture medium with or without test compound is replaced by 0.2 mL of an aqueous propidium iodide (PI) solution (7 mg/L). To measure the proportion of living cells, cells are permeabilized by freezing the plates. After thawing the plates, fluorescence was measured using the Cytofluor 4000 microplate reader (excitation 530 nm, emission 620 nm), giving a direct relationship to the total number of viable cells.
(§8) Growth inhibition is expressed as treated/control×100 (% T/C).
(§9) In vitro evaluation of macbecin for anticancer activity in a panel of 12 human tumor cell lines in a monolayer proliferation assay was carried out as described in the general methods using a modified propidium iodide assay.

MCF-7 = assay: as above; format: cell-based, human; settings: MCF7, 4 days exposure
From the text: as §3, §4, §5, §6, §7, §8, §9

MEXF 394NL = assay: as above; format: cell-based, human; settings: 4 days exposure
From the text: as §3, §4, §5, §6, §7, §8, §9

DU145 = assay: as above; format: cell-based, human; settings: 4 days exposure
From the text: as §3, §4, §5, §6, §7, §8, §9

GXF 251L = assay: as above; format: cell-based, human; settings: 4 days exposure
From the text: as §3, §4, §5, §6, §7, §8, §9

OVCAR-3 = assay: as above; format: cell-based, human; settings: OVCAR3, 4 days exposure
From the text: as §3, §4, §5, §6, §7, §8, §9

UXF 1138L = assay: as above; format: cell-based, human; settings: 4 days exposure
From the text: as §3, §4, §5, §6, §7, §8, §9

A498 = assay: as above; format: cell-based, human; settings: 4 days exposure
From the text: as §3, §4, §5, §6, §7, §8, §9

NCI-H460 = assay: as above; format: cell-based, human; settings: 4 days exposure
From the text: as §3, §4, §5, §6, §7, §8, §9

SF-268 = assay: as above; format: cell-based, human; settings: SF268, 4 days exposure
From the text: as §3, §4, §5, §6, §7, §8, §9

MDA-MB-231 = assay: as above; format: cell-based, human; settings: MDA231, 4 days exposure
From the text: as §3, §4, §5, §6, §7, §8, §9

LNCAP = assay: as above; format: cell-based, human; settings: 4 days exposure
From the text: as §3, §4, §5, §6, §7, §8, §9

[3] = target: terminal deoxynucleotidyl transferase (Homo sapiens, UniProt P04053); settings: Ono et al., 1982; cited from earlier work
Sequence of terminal deoxynucleotidyl transferase (P04053 whole entry, species assumed): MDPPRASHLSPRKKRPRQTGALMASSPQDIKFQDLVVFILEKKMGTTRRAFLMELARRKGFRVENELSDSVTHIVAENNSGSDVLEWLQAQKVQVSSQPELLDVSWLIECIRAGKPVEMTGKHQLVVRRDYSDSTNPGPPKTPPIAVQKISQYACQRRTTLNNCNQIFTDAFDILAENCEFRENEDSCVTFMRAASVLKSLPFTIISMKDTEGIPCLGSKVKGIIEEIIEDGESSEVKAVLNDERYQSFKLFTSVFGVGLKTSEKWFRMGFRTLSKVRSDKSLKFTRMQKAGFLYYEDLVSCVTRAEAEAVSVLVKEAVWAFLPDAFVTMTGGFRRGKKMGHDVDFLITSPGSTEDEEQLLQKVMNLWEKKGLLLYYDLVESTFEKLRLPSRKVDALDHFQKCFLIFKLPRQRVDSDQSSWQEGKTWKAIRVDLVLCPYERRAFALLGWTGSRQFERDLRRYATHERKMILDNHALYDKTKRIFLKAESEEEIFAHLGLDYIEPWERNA

Reverse transcriptase = settings: Ono et al., 1982; cited from earlier work
[4] = Phosphate Buffer pH 7.2 (37° C.)
[5] = Phosphate Buffer pH 7.4 (37° C.)
[6] = Rabbit blood pH 7.3 (37° C.) Run 1

Compound: 18-O—(N,N′-diethylethylenediamine-N′-carbamoyl)-18,21-dihydromacbecin Hydrochloride Salt [Compound 3]
- t1/2 [1, 4]: 4.6 h
- t1/2 [1, 5]: 2.67 h
- t1/2 [2, 6]: 2.67 h

Compound: 18-O—(N,N′-dimethylethylenediamine-N′-carbamoyl)-18,21-dihydromacbecin Hydrochloride Salt [Compound 1]
- minimum T/C value (PRXF DU-145 xenografts): 24.3%
- t1/2 [1, 4]: 1.07 h
- t1/2 [1, 5]: 0.817 h
- t1/2 [2, 6]: 0.75 h
- t1/2 ([2]; Rabbit blood pH 7.3 (37° C.) Run 2): 0.817 h

Compound: CNCCNC(=O)Oc1cc2c(O)c(c1)C(OC)C(C)CC(OC)C(OC)C(C)C=C(C)C(OC(N)=O)C(C)C=CC=C(C)C(=O)N2.Cl (stereo not shown) [Compound 2, 18-O—(N-methylethylenediamine-N′-carbamoyl)-18,21-dihydromacbecin Hydrochloride Salt]
- t1/2 [1, 4]: 10.4 h
- t1/2 [1, 5]: 2.12 h
- t1/2 [2, 6]: 2.55 h

Compound: CO[C@H]1[C@@H](OC)C[C@H](C)[C@@H](OC)C2=CC(=O)C=C(NC(=O)/C(C)=C/C=C\[C@@H](C)[C@@H](OC(N)=O)/C(C)=C/[C@@H]1C)C2=O [macbecin]
- Test/Control (%) at drug concentration (MDA-MB-468; 1 × 10−5 M): 4%
- Test/Control (%) at drug concentration (MDA-MB-468; 1 × 10−6 M): 14.5%
- Test/Control (%) at drug concentration (MCF-7; 1 × 10−5 M): 12%
- Test/Control (%) at drug concentration (MCF-7; 1 × 10−6 M): 35.5%
- Test/Control (%) at drug concentration (MEXF 394NL; 1 × 10−5 M): 17%
- Test/Control (%) at drug concentration (MEXF 394NL; 1 × 10−6 M): 21%
- Test/Control (%) at drug concentration (DU145; 1 × 10−5 M): 14.5%
- Test/Control (%) at drug concentration (DU145; 1 × 10−6 M): 42%
- Test/Control (%) at drug concentration (GXF 251L; 1 × 10−5 M): 37%
- Test/Control (%) at drug concentration (GXF 251L; 1 × 10−6 M): 61%
- Test/Control (%) at drug concentration (OVCAR-3; 1 × 10−5 M): 37.5%
- Test/Control (%) at drug concentration (OVCAR-3; 1 × 10−6 M): 71%
- Test/Control (%) at drug concentration (UXF 1138L; 1 × 10−5 M): 19%
- Test/Control (%) at drug concentration (UXF 1138L; 1 × 10−6 M): 75.5%
- Test/Control (%) at drug concentration (A498; 1 × 10−5 M): 82%
- Test/Control (%) at drug concentration (A498; 1 × 10−6 M): 107.5%
- Test/Control (%) at drug concentration (NCI-H460; 1 × 10−5 M): 21.5%
- Test/Control (%) at drug concentration (NCI-H460; 1 × 10−6 M): 110%
- Test/Control (%) at drug concentration (SF-268; 1 × 10−5 M): 20.5%
- Test/Control (%) at drug concentration (SF-268; 1 × 10−6 M): 95.5%
- Test/Control (%) at drug concentration (MDA-MB-231; 1 × 10−5 M): 34%
- Test/Control (%) at drug concentration (MDA-MB-231; 1 × 10−6 M): 88%
- Test/Control (%) at drug concentration (LNCAP; 1 × 10−5 M): 27.5%
- Test/Control (%) at drug concentration (LNCAP; 1 × 10−6 M): 43.5%
- terminal deoxynucleotidyl transferase activity inhibition [3]: not inhibited
- Reverse transcriptase activity inhibition (Reverse transcriptase): not inhibited
